Literature values, collected in patent publication US12233088B2 (Alexion Pharmaceuticals, Inc., priority 2017, dated 2025).

System: patients with Wilson's disease
Details: cited from earlier work; for patients with worsening of neurological symptoms on initiation of treatment: reported

| SMILES | mean time to neurological worsening from initiation (Litwin et al.) | patients with early neurological worsening, n (%) (of 42 patients with neurological Wilson's disease, Litwin et al.) | patients with worsening of neurological symptoms on initiation of treatment | children with gastrointestinal adverse events (Polish cohort, Wiernicka et al.) | patients who discontinued treatment because of adverse events (retrospective study) |
| --- | --- | --- | --- | --- | --- |
| CC(C)(S)[C@@H](N)C(=O)O [penicillamine, D-penicillamine] | 2.3 months | 12 (29%) | approximately 25% | – | – |
| [Zn] [zinc] | – | – | – | 40% | 11% |
| NCCNCCNCCN [trientine] | – | – | approximately 25% | – | – |
